Here are results for 15 compounds from patent US20240317780A1, “RADIOPHARMACEUTICAL SOMATOSTATIN RECEPTOR LIGANDS AND PRECURSORS THEREOF” (Technische Universität München, priority 2021, published 2024).

T1 sequence (P30874 whole entry, species assumed): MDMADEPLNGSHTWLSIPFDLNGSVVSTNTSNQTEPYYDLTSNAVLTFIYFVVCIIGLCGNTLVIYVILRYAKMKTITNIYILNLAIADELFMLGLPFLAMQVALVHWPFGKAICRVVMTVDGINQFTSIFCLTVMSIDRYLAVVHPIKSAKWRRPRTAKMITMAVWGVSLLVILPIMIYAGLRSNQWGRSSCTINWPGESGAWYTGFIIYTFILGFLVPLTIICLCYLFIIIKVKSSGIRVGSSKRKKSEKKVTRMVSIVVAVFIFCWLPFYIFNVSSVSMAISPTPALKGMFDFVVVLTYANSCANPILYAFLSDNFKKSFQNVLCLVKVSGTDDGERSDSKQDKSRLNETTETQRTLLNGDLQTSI

This test concerns the target T1, SST2 (Homo sapiens, UniProt P30874).
T1 construct: expressed in transfected cells; host or cells: CHO (Chinese hamster ovary) cells
Nature of the test: Determination of IC50: competitive binding against [125I]TOC on SST2-transfected CHO cells. As to conditions: [125I]TOC reference radioligand, 60 min room temperature. The protocol: The SST2-transfected CHO cells were cultivated in Dulbecco's Modified Eagle Medium/Nutrient Mixture F-12 (DMEM/F-12) with Glutamax-I (1:1) (Gibco), supplemented with 10% fetal calf serum (FCS) and maintained at 37° C. in a humidified 5% CO2 atmosphere. […] After removal of the culture medium, the cells were treated once with 300 μL of HBSS-B (Hank's balanced salt solution, Biochrom, Berlin, Germany, with addition of 1% bovine serum albumin (BSA)) and left with 200 μL HBSS-B. Next, 25 μL per well of solutions, containing either HBSS-B (control) or the respective ligand in increasing concentration (10^−10-10^−4 M in HBSS-B, were added with subsequent addition of 25 μL of
[^125I]TOC ([^125I]Tyr^3-Octreotide) (1.0 nM) in HBSS-B. Each concentration is investigated in triplicate. After 60 min incubation at room temperature, the experiment was terminated by removal of the assay medium and consecutive rinsing with 300 μL of cold PBS. The media of both steps were combined in one fraction and represent the amount of unbound radioligand.
Afterwards, the cells were lysed with 300 μL of 1 M NaOH and united with the 300 μL 1 M NaOH of the following wash step. Quantification of bound and unbound radioligand was accomplished in a γ-counter.
The IC50 is the concentration that gives 50% inhibition. As for `C[C@@H](O)[C@H](NC(=O)C1CSSCC(NC(=O)C(Cc2ccccc2)NC(=O)[C@@H](CC(N)=O)NC(=O)C(CC(N)=O)NC(=O)[C@@H](CC(=O)O)NC(=O)C(CC(=O)O)NC(=O)[C@@H](CNC(=O)CN2CCN(CC(=O)O)CCN(CC(=O)O)CCN(CC(=O)O)CC2)NC(=O)C[N+](C)(C)Cc2ccc([Si](F)(C(C)(C)C)C(C)(C)C)cc2)C(=O)N[C@@H](Cc2ccc(O)cc2)C(=O)NC(Cc2c[nH]c3ccccc23)C(=O)N[C@@H](CCCCN)C(=O)N[C@@H]([C@@H](C)O)C(=O)N1)C(=O)O` (stereo partly drawn) (natGa complex, metal not drawn) [[Ga]48], the IC50 turned out to be 6.1 ± 0.57 nM. The figure for `C[C@@H](O)[C@H](NC(=O)C1CSSCC(NC(=O)C(Cc2ccccc2)NC(=O)[C@@H](CC(N)=O)NC(=O)C(CC(N)=O)NC(=O)CNC(=O)C(CC(=O)O)NC(=O)[C@@H](CC(=O)O)NC(=O)C(CNC(=O)CN2CCN(CC(=O)O)CCN(CC(=O)O)CCN(CC(=O)O)CC2)NC(=O)C[N+](C)(C)Cc2ccc([Si](F)(C(C)(C)C)C(C)(C)C)cc2)C(=O)N[C@@H](Cc2ccc(O)cc2)C(=O)NC(Cc2c[nH]c3ccccc23)C(=O)N[C@@H](CCCCN)C(=O)N[C@@H]([C@@H](C)O)C(=O)N1)C(=O)O` (stereo partly drawn) (natGa complex, metal not drawn) [[Ga]49] is 6.31 ± 0.99 nM; for `C[C@@H](O)[C@H](NC(=O)C1CSSCC(NC(=O)C(Cc2ccccc2)NC(=O)CNC(=O)CNC(=O)CNC(=O)C(CC(=O)O)NC(=O)[C@@H](CC(=O)O)NC(=O)C(CNC(=O)CN2CCN(CC(=O)O)CCN(CC(=O)O)CCN(CC(=O)O)CC2)NC(=O)[C@@H](CN)NC(=O)C[N+](C)(C)Cc2ccc([Si](F)(C(C)(C)C)C(C)(C)C)cc2)C(=O)N[C@@H](Cc2ccc(O)cc2)C(=O)NC(Cc2c[nH]c3ccccc23)C(=O)N[C@@H](CCCCN)C(=O)N[C@@H]([C@@H](C)O)C(=O)N1)C(=O)O` (stereo partly drawn) (natGa complex, metal not drawn) [[Ga]51] it is 3.56 ± 0.25 nM; for `C[C@@H](O)[C@H](NC(=O)C1CSSCC(NC(=O)C(Cc2ccccc2)NC(=O)CNC(=O)CNC(=O)CNC(=O)C(CC(=O)O)NC(=O)[C@@H](CC(=O)O)NC(=O)C(CNC(=O)CN2CCN(CC(=O)O)CCN(CC(=O)O)CCN(CC(=O)O)CC2)NC(=O)[C@@H](CN)NC(=O)CNC(=O)C[N+](C)(C)Cc2ccc([Si](F)(C(C)(C)C)C(C)(C)C)cc2)C(=O)N[C@@H](Cc2ccc(O)cc2)C(=O)NC(Cc2c[nH]c3ccccc23)C(=O)N[C@@H](CCCCN)C(=O)N[C@@H]([C@@H](C)O)C(=O)N1)C(=O)O` (stereo partly drawn) (natGa complex, metal not drawn) [[Ga]52] it is 3.69 ± 0.34 nM. The figure for `C[C@@H](O)[C@H](NC(=O)C1CSSCC(NC(=O)C(Cc2ccccc2)NC(=O)CNC(=O)CNC(=O)CNC(=O)C(CC(=O)O)NC(=O)[C@@H](CC(=O)O)NC(=O)C(CNC(=O)CN2CCN(CC(=O)O)CCN(CC(=O)O)CCN(CC(=O)O)CC2)NC(=O)[C@@H](CN)NC(=O)CNC(=O)CNC(=O)C[N+](C)(C)Cc2ccc([Si](F)(C(C)(C)C)C(C)(C)C)cc2)C(=O)N[C@@H](Cc2ccc(O)cc2)C(=O)NC(Cc2c[nH]c3ccccc23)C(=O)N[C@@H](CCCCN)C(=O)N[C@@H]([C@@H](C)O)C(=O)N1)C(=O)O` (stereo partly drawn) (natGa complex, metal not drawn) [[Ga]53] is 3.4 ± 0.18 nM; for `C[C@@H](O)[C@H](NC(=O)C1CSSCC(NC(=O)C(Cc2ccccc2)NC(=O)CNC(=O)CNC(=O)[C@@H](CC(=O)O)NC(=O)C(CC(=O)O)NC(=O)[C@@H](CNC(=O)CN2CCN(CC(=O)O)CCN(CC(=O)O)CCN(CC(=O)O)CC2)NC(=O)C(CN)NC(=O)c2ccc([Si](F)(C(C)(C)C)C(C)(C)C)cc2)C(=O)N[C@@H](Cc2ccc(O)cc2)C(=O)NC(Cc2c[nH]c3ccccc23)C(=O)N[C@@H](CCCCN)C(=O)N[C@@H]([C@@H](C)O)C(=O)N1)C(=O)O` (stereo partly drawn) (natLu complex, metal not drawn) [[Lu]19] it is 13.3 ± 1.97 nM; for `C[C@@H](O)[C@H](NC(=O)C1CSSCC(NC(=O)C(Cc2ccccc2)NC(=O)CNC(=O)CNC(=O)[C@@H](CC(=O)O)NC(=O)C(CC(=O)O)NC(=O)[C@@H](CNC(=O)CC[C@H](C(=O)O)N2CCN(CC(=O)O)CCN(CC(=O)O)CCN(CC(=O)O)CC2)NC(=O)C(CN)NC(=O)c2ccc([Si](F)(C(C)(C)C)C(C)(C)C)cc2)C(=O)N[C@@H](Cc2ccc(O)cc2)C(=O)NC(Cc2c[nH]c3ccccc23)C(=O)N[C@@H](CCCCN)C(=O)N[C@@H]([C@@H](C)O)C(=O)N1)C(=O)O` (stereo partly drawn) (natLu complex, metal not drawn) [[Lu]20] it is 11 ± 5.69 nM. In turn, `C[C@@H](O)[C@H](NC(=O)C1CSSCC(NC(=O)C(Cc2ccccc2)NC(=O)CNC(=O)CNC(=O)[C@@H](CC(=O)O)NC(=O)C(CC(=O)O)NC(=O)[C@@H](CNC(=O)CN2CCN(CC(=O)O)CCN(CC(=O)O)CCN(CC(=O)O)CC2)NC(=O)C[N+](C)(C)Cc2ccc([Si](F)(C(C)(C)C)C(C)(C)C)cc2)C(=O)N[C@@H](Cc2ccc(O)cc2)C(=O)NC(Cc2c[nH]c3ccccc23)C(=O)N[C@@H](CCCCN)C(=O)N[C@@H]([C@@H](C)O)C(=O)N1)C(=O)O` (stereo partly drawn) (natLu complex, metal not drawn) [[Lu]24] yielded an IC50 of 5.5 ± 0.76 nM. In turn, `C[C@@H](O)[C@H](NC(=O)C1CSSCC(NC(=O)C(Cc2ccccc2)NC(=O)CNC(=O)CNC(=O)CNC(=O)C(CC(=O)O)NC(=O)[C@@H](CC(=O)O)NC(=O)C(CNC(=O)C[N+](C)(C)Cc2ccc([Si](F)(C(C)(C)C)C(C)(C)C)cc2)NC(=O)CN2CCN(CC(=O)O)CCN(CC(=O)O)CCN(CC(=O)O)CC2)C(=O)N[C@@H](Cc2ccc(O)cc2)C(=O)NC(Cc2c[nH]c3ccccc23)C(=O)N[C@@H](CCCCN)C(=O)N[C@@H]([C@@H](C)O)C(=O)N1)C(=O)O` (stereo partly drawn) (natLu complex, metal not drawn) [[Lu]44] showed an IC50 of 3.86 ± 0.23 nM. The IC50 values of the last two compounds are within 1.5-fold of each other. The figure for `C[C@@H](O)[C@H](NC(=O)C1CSSCC(NC(=O)C(Cc2ccccc2)NC(=O)CNC(=O)CNC(=O)CNC(=O)C(CC(=O)O)NC(=O)[C@@H](CC(=O)O)NC(=O)C(CCCCN)NC(=O)[C@@H](CNC(=O)C[N+](C)(C)Cc2ccc([Si](F)(C(C)(C)C)C(C)(C)C)cc2)NC(=O)CN2CCN(CC(=O)O)CCN(CC(=O)O)CCN(CC(=O)O)CC2)C(=O)N[C@@H](Cc2ccc(O)cc2)C(=O)NC(Cc2c[nH]c3ccccc23)C(=O)N[C@@H](CCCCN)C(=O)N[C@@H]([C@@H](C)O)C(=O)N1)C(=O)O` (stereo partly drawn) (natLu complex, metal not drawn) [[Lu]45] is 3.37 ± 0.35 nM; for `C[C@@H](O)[C@H](NC(=O)C1CSSCC(NC(=O)C(Cc2ccccc2)NC(=O)CNC(=O)CNC(=O)CNC(=O)C(CC(=O)O)NC(=O)[C@@H](CC(=O)O)NC(=O)C(CCCNC(N)=O)NC(=O)[C@@H](CNC(=O)C[N+](C)(C)Cc2ccc([Si](F)(C(C)(C)C)C(C)(C)C)cc2)NC(=O)CN2CCN(CC(=O)O)CCN(CC(=O)O)CCN(CC(=O)O)CC2)C(=O)N[C@@H](Cc2ccc(O)cc2)C(=O)NC(Cc2c[nH]c3ccccc23)C(=O)N[C@@H](CCCCN)C(=O)N[C@@H]([C@@H](C)O)C(=O)N1)C(=O)O` (stereo partly drawn) (natLu complex, metal not drawn) [[Lu]46] it is 4.07 ± 0.52 nM; for `C[C@@H](O)[C@H](NC(=O)C1CSSCC(NC(=O)C(Cc2ccccc2)NC(=O)CNC(=O)CNC(=O)CNC(=O)C(CC(=O)O)NC(=O)[C@@H](CC(=O)O)NC(=O)C(CCC(=O)O)NC(=O)[C@@H](CNC(=O)C[N+](C)(C)Cc2ccc([Si](F)(C(C)(C)C)C(C)(C)C)cc2)NC(=O)CN2CCN(CC(=O)O)CCN(CC(=O)O)CCN(CC(=O)O)CC2)C(=O)N[C@@H](Cc2ccc(O)cc2)C(=O)NC(Cc2c[nH]c3ccccc23)C(=O)N[C@@H](CCCCN)C(=O)N[C@@H]([C@@H](C)O)C(=O)N1)C(=O)O` (stereo partly drawn) (natLu complex, metal not drawn) [[Lu]47] it is 5.13 ± 0.51 nM. The figure for `C[C@@H](O)[C@H](NC(=O)C1CSSCC(NC(=O)C(Cc2ccccc2)NC(=O)[C@@H](CC(N)=O)NC(=O)C(CC(N)=O)NC(=O)[C@@H](CC(=O)O)NC(=O)C(CC(=O)O)NC(=O)[C@@H](CNC(=O)CN2CCN(CC(=O)O)CCN(CC(=O)O)CCN(CC(=O)O)CC2)NC(=O)C[N+](C)(C)Cc2ccc([Si](F)(C(C)(C)C)C(C)(C)C)cc2)C(=O)N[C@@H](Cc2ccc(O)cc2)C(=O)NC(Cc2c[nH]c3ccccc23)C(=O)N[C@@H](CCCCN)C(=O)N[C@@H]([C@@H](C)O)C(=O)N1)C(=O)O` (stereo partly drawn) (natLu complex, metal not drawn) [[Lu]48] is 5.5 ± 1.47 nM; for `C[C@@H](O)[C@H](NC(=O)C1CSSCC(NC(=O)C(Cc2ccccc2)NC(=O)[C@@H](CC(N)=O)NC(=O)C(CC(N)=O)NC(=O)CNC(=O)C(CC(=O)O)NC(=O)[C@@H](CC(=O)O)NC(=O)C(CNC(=O)CN2CCN(CC(=O)O)CCN(CC(=O)O)CCN(CC(=O)O)CC2)NC(=O)C[N+](C)(C)Cc2ccc([Si](F)(C(C)(C)C)C(C)(C)C)cc2)C(=O)N[C@@H](Cc2ccc(O)cc2)C(=O)NC(Cc2c[nH]c3ccccc23)C(=O)N[C@@H](CCCCN)C(=O)N[C@@H]([C@@H](C)O)C(=O)N1)C(=O)O` (stereo partly drawn) (natLu complex, metal not drawn) [[Lu]49] it is 4.47 ± 0.95 nM.

In turn, `C[C@@H](O)[C@H](NC(=O)C1CSSCC(NC(=O)C(Cc2ccccc2)NC(=O)CNC(=O)CNC(=O)CNC(=O)C(CC(=O)O)NC(=O)[C@@H](CC(=O)O)NC(=O)C(CNC(=O)CN2CCN(CC(=O)O)CCN(CC(=O)O)CCN(CC(=O)O)CC2)NC(=O)C[N+](C)(C)Cc2ccc([Si](F)(C(C)(C)C)C(C)(C)C)cc2)C(=O)N[C@@H](Cc2ccc(O)cc2)C(=O)NC(Cc2c[nH]c3ccccc23)C(=O)N[C@@H](CCCCN)C(=O)N[C@@H]([C@@H](C)O)C(=O)N1)C(=O)O` (stereo partly drawn) (natLu complex, metal not drawn) [[Lu]50] came in with a half-maximal inhibitory concentration (IC50) of 3.72 ± 0.61 nM.
